Drawing on US10266497B2 (ABIDE THERAPEUTICS, INC., priority 2017, dated 2019), this text covers inhibition and IC50 for seven compounds.

Like-named read-outs stand apart in the source and are kept apart here.

The target in assay [1] is T1, MAGL (Homo sapiens, UniProt Q99685).
T1 sequence (Q99685 1-303): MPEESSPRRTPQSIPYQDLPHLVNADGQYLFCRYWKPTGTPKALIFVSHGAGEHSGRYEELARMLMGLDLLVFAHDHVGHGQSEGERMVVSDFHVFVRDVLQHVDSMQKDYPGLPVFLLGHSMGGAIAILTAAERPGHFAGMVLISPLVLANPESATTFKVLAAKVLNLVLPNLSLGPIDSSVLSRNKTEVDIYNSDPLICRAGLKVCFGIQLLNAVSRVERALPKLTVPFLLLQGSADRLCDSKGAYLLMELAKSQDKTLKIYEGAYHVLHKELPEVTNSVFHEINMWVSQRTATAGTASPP
Nature of the assay: In vitro competitive activity-based protein profiling, MAGL, human. The following applies: for inhibition at 1 µM: read-out: MAGL % inh. 1 μM (human).

Assay [2] deals with T2, MAGL (Mus musculus, UniProt O35678).
T2 sequence (O35678 1-303): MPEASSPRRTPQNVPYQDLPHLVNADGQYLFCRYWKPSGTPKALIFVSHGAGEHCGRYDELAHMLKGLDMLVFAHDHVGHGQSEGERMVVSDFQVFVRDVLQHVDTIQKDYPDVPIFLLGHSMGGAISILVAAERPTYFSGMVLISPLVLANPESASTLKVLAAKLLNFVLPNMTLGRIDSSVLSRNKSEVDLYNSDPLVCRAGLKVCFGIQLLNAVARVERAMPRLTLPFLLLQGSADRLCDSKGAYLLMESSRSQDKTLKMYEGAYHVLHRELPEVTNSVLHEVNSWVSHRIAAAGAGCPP
Nature of the assay: In vitro competitive activity-based protein profiling, MAGL, mouse. The following applies: read-out: MAGL % inh. 1 μM (mouse).

Assay [3] concerns the target T3, FAAH (Homo sapiens, UniProt O00519).
T3 sequence (O00519 1-579): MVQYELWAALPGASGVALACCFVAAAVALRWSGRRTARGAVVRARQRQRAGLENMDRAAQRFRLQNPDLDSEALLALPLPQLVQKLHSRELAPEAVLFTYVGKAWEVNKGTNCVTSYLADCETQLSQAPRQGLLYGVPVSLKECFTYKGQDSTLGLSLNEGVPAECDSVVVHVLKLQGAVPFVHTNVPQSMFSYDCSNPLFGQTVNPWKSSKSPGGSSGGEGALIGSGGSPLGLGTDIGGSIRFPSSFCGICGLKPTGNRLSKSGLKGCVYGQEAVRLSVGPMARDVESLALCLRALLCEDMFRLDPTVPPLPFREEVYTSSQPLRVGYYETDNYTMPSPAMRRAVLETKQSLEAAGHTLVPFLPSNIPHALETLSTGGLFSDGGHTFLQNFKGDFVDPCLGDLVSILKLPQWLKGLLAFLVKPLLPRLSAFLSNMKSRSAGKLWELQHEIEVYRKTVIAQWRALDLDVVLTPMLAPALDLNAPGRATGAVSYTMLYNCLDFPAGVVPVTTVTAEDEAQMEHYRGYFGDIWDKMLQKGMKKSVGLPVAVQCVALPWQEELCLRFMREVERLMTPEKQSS
As to the kind of experiment: In vitro competitive activity-based protein profiling, FAAH, human. The following applies: for inhibition at 1 µM: read-out: FAAH % inh. 1 μM (human).

Assay [4] deals with T4, FAAH (Mus musculus, UniProt O08914).
T4 sequence (O08914 1-579): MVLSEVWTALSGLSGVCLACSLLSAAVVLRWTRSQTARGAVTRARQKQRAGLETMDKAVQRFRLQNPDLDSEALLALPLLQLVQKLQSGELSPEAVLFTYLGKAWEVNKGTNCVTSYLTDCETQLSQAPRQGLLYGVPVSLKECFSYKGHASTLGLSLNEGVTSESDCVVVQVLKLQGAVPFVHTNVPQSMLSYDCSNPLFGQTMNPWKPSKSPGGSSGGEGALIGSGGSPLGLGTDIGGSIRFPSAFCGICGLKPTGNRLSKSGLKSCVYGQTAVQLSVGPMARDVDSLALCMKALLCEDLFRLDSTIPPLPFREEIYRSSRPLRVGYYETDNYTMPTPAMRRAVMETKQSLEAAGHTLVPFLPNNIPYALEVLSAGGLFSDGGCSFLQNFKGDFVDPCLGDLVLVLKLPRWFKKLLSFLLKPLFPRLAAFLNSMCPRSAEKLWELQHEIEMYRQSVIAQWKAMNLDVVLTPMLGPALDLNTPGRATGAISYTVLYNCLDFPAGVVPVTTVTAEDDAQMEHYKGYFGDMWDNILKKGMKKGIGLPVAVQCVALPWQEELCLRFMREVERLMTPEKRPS
As to the kind of experiment: In vitro competitive activity-based protein profiling, FAAH, mouse. The following applies: read-out: FAAH % inh. 1 μM (mouse).

Assay [5] has as its target T2, MAGL. Nature of the assay: Mouse brain proteomes from inhibitor treated mice (oral gavage, sacrificed 4 h after administration). The arrangement: mouse brain membrane fraction for mouse assays; from tissue; host or cells: mouse brain (membrane fraction in vitro; brain proteomes of treated C57Bl/6J mice in vivo). Conditions: 5 mg/kg oral gavage, brain proteome 4 h after administration, read-out: MAGL % inh. 5 mg/kg (mouse). Format: in vivo.

Assay [6] has as its target T4, FAAH. Nature of the assay: Mouse brain proteomes from inhibitor treated mice (oral gavage, sacrificed 4 h after administration), FAAH. Format: in vivo. The arrangement: mouse brain membrane fraction for mouse assays; from tissue; host or cells: mouse brain (membrane fraction in vitro; brain proteomes of treated C57Bl/6J mice in vivo). Conditions: 5 mg/kg oral gavage, C57Bl/6J mice, brain proteome 4 h after administration, read-out: FAAH % inh. 5 mg/kg (mouse).

Assay [7] has as its target T4, FAAH. Described as above. The following applies: 5 mg/kg oral gavage, brain proteome 4 h after administration, read-out: FAAH % inh. 5 mg/kg (mouse). The arrangement: mouse brain membrane fraction for mouse assays; from tissue; host or cells: mouse brain (membrane fraction in vitro; brain proteomes of treated C57Bl/6J mice in vivo). Format: in vivo.

As to `CN(Cc1ccc(C(F)(F)F)cc1N1CCCC1)C1(C)CCN(C(=O)n2ccc(C(=O)O)n2)CC1` [Example 456, 1-(4-methyl-4-(methyl(2-(pyrrolidin-1-yl)-4-(trifluoromethyl)benzyl)amino)piper-idine-1-carbonyl)-1H-pyrazole-3-carboxylic acid], the inhibition at 1 µM on MAGL [1] was above 75%; on MAGL [2], above 75%; at FAAH [3] it was 0 to 25%; on FAAH [4], 0 to 25%. The inhibition at 5 mg/kg on MAGL [5] (C57Bl/6J mice) and at FAAH [6] was 0 to 25% each time.

`O=C(O)c1ccn(C(=O)N2CCN(Cc3ccc(C(F)(F)F)c(N4CC5COCC5C4)c3)CC2)n1` (stereo not shown) [Example 454, 1-(4-(3-(tetrahydro-1H-furo[3,4-c]pyrrol-5(3H)-yl)-4-(trifluoromethyl)benzyl)piperazine-1-carbonyl)-1H-pyrazole-3-carboxylic acid]: the inhibition at 1 µM on MAGL [1] is above 75%; at MAGL [2], above 75%; at FAAH [3], 0 to 25%; at FAAH [4] it was 0 to 25%. The inhibition at 5 mg/kg on MAGL [5] (C57Bl/6J mice) and on FAAH [6] was 0 to 25% in each case.

As a reminder, the IC50 is the concentration at which inhibition is half-maximal. Turning to `O=C(O)c1ccn(C(=O)N2CCN(Cc3cccc(C(F)(F)F)c3N3CCOCC3)CC2)n1` [Example 453, 1-(4-(2-morpholino-3-(trifluoromethyl)benzyl)piperazine-1-carbonyl)-1H-pyrazole-3-carboxylic acid], the inhibition at 1 µM on MAGL [2] was above 75%; on FAAH [4] it was 0 to 25%. At FAAH [3], this compound displayed an IC50 of 1 to 10 µM. Moreover, the inhibition at 5 mg/kg at MAGL [5] (C57Bl/6J mice) and on FAAH [6] was 0 to 25% each time.

As to `O=C(O)c1ccn(C(=O)N2CCN(Cc3ccc(C(F)(F)F)cc3N3C4CCC3COC4)CC2)n1` [Example 118, 1-(4-(2-(3-oxa-8-azabicyclo[3.2.1]octan-8-yl)-4-(trifluoromethyl)benzyl)piperazine-1-carbonyl)-1H-pyrazole-3-carboxylic acid], the inhibition at 1 µM was above 75% on MAGL [1], above 75% at MAGL [2], 0 to 25% at FAAH [3] and 0 to 25% on FAAH [4]. Further, the inhibition at 5 mg/kg on MAGL [5] and on FAAH [7] was 0 to 25% throughout.

For `O=C(O)c1ccn(C(=O)N2CCN(Cc3ccc(C(F)(F)F)cc3Cl)CC2)n1` [Example 91, 1-(4-(2-chloro-4-(trifluoromethyl)benzyl)piperazine-1-carbonyl)-1H-pyrazole-3-carboxylic acid], the inhibition at 1 µM at MAGL [1] is above 75%; at MAGL [2], above 75%; at FAAH [3], 0 to 25%; on FAAH [4], 0 to 25%. Besides, the inhibition at 5 mg/kg at MAGL [5] and at FAAH [7] was 0 to 25% in each case.

On to `O=C(O)c1ccn(C(=O)N2CCN(Cc3ccc(C(F)(F)F)cc3N3CCN4CCC[C@@H]4C3)CC2)n1` [Example 48, (R)-1-(4-(2-(hexahydropyrrolo [1,2-a]pyrazin-2(1H)-yl)-4-(trifluoromethyl)benzyl)piperazine-1-carbonyl)-1H-pyrazole-3-carboxylic acid], for which the inhibition at 1 µM was above 75% on MAGL [1], above 75% on MAGL [2], 0 to 25% at FAAH [3] and 0 to 25% at FAAH [4]. In addition, the inhibition at 5 mg/kg on MAGL [5] and at FAAH [7] was 0 to 25% each time.

As for `O=C(O)c1ccn(C(=O)N2CCC3(CCN(Cc4cccc(Oc5ccc(Cl)cc5)c4)C3)CC2)n1` [Example 210, 1-(2-(3-(4-chlorophenoxy)benzyl)-2,8-diazaspiro[4.5]decane-8-carbonyl)-1H-pyrazole-3-carboxylic acid], the IC50 at MAGL [1] lay within 0.1 to 1 µM; at FAAH [3] it was 1 to 10 µM. In addition, the inhibition at 1 µM on MAGL [1], on MAGL [2], on FAAH [3] and on FAAH [4] was above 75% in each case. The inhibition at 5 mg/kg at MAGL [5] and at FAAH [7] was 0 to 25% in each case.
